# Entries after “also recorded” stand apart in the source; their conditions may differ.
# Experiments:
# HS746T tumors = experiment: Gastric carcinoma xenograft model: Hs 746T tumors in nude mice, tumor growth inhibition; assay type: in vivo; details: for % Tumor Growth Inhibition (% TGI) / tumor growth inhibition, mixed effect linear model of the tumor volumes on the last day of study: HS746T xenograft
# Experimental: Hs 746T cell line is a gastric carcinoma epithelial cell type from stomach that were isolated from the metastatic site of left leg muscle. Hs 746T cell lines were implanted subcutaneously in nude mice. Tumors were allowed to grow. Once the average tumor volume reached the volume of 120 mm3, animals were randomized into four groups of vehicle control, 75 mg/kg, 100 mg/kg, and 150 mg/kg 2-(difluoromethoxy)-N-[[5-(2-methoxyphenyl)-1H-1,2,4-triazol-3-yl]methyl]benzamide with 10 animals per group. Methocel E3 Premium LV with 2% labrasol in Milli-Q water was used for vehicle control. 2-(difluoromethoxy)-N-[[5-(2-methoxyphenyl)-1H-1,2,4-triazol-3-yl]methyl]benzamide was prepared prior to each dosing in 2% labrasol dissolved in Milli-Q water. 2-(difluoromethoxy)-N-[[5-(2-methoxyphenyl)-1H-1,2,4-triazol-3-yl]methyl]benzamide was administered by oral gavage two times a day (BID). In this study there were 10 animals per each group. […] The mean tumor volume of each group over time and the growth of tumor in each individual animal is plotted below. For each individual animal of vehicle group TGI % was calculated based on the tumor growth inhibition of individual tumor at each given day of the study compared to the average of the group for that given day of the study. The P value was calculated for each group that was treated with 2-(difluoromethoxy)-N-[[5-(2-methoxyphenyl)-1H-1,2,4-triazol-3-yl]methyl]benzamide for each given day of the study by comparing the TGI of that day to the TGI of the vehicle group. This P value is different than what is provided in the CRO report which is the P value related to tumor volume not TGI %. P value was calculated by excel program using two-tailed distribution and two-sample equal variance (homoscedastic). ns P>0.05; * P<0.05; ** P<0.01; *** P<0.001; **** P<0.0001.
# SNU5 tumors = experiment: Gastric carcinoma xenograft model: SNU-5 tumors in nude mice, tumor growth inhibition; assay type: in vivo; details: SNU-5 xenograft
# Experimental: SNU-5 is derived from ascites of a patient with poorly differentiated carcinoma of the stomach. The patient had previously received chemotherapy including 5-fluorouracil, doxorubicin and mitomycin-C. This cell line is derived from metastatic site, ascites.
# SNU-5 cell lines were implanted subcutaneously in nude mice. Tumors were allowed to grow. Once the average tumor volume reached the volume of 122 mm3, animals were randomized into three groups of vehicle control, 75 mg/kg and 150 mg/kg 2-(difluoromethoxy)-N-[[5-(2-methoxyphenyl)-1H-1,2,4-triazol-3-yl]methyl]benzamide with 12 animals per group. Methocel E3 Premium LV in Milli-Q water was used for vehicle control. A solid dispersion of 2-(difluoromethoxy)-N-[[5-(2-methoxyphenyl)-1H-1,2,4-triazol-3-yl]methyl]benzamide was prepared prior to each dosing in Milli-Q water. 2-(difluoromethoxy)-N-[[5-(2-methoxyphenyl)-1H-1,2,4-triazol-3-yl]methyl]benzamide was administered by oral gavage two times a day (BID). In this study there were 12 animals per each group. […] Animals that left the study prior to day 23 were eliminated from all calculations. The percentage of tumor growth inhibition (TGI %) was calculated for each individual tumor. The mean tumor volume of each group over time and the growth of tumor in each individual animal is plotted below. For each individual animal of vehicle group TGI % was calculated based on the tumor growth inhibition of individual tumor at each given day of the study compared to the average of the group for that given day of the study. The P value was calculated for each group that was treated with 2-(difluoromethoxy)-N-[[5-(2-methoxyphenyl)-1H-1,2,4-triazol-3-yl]methyl]benzamide for each given day of the study by comparing the TGI of that day to the TGI of the vehicle group. This P value is different than what is provided in the CRO report which is the P value related to tumor volume not TGI %. P value was calculated by excel program using two-tailed distribution and two-sample equal variance (homoscedastic). ns P>0.05; * P<0.05; ** P<0.01; *** P<0.001; **** P<0.0001.
# [1] = tested on: cyclin B1(CCNB1) and phospho histone H3(pHH3); experiment: Level of cyclin B1 and phospho histone H3 in HS746T xenograft tumors; assay type: in vivo, nude mice; details: 75-150 mg/kg (FIG. 2)
# [2] = tested on: cyclin B1 and phosphor histone H3; experiment: Level of cyclin B1 and phospho histone H3 in SNU-5 xenograft tumors; assay type: in vivo, nude mice; details: 75 and 150 mg/kg (FIG. 4)
# [3] = Tolerability (body weight, survival) in HS746T xenograft study; assay type: in vivo; details: HS746T xenograft, 75, 100 and 150 mg/kg oral BID, 15 days
# Experimental: Hs 746T cell line is a gastric carcinoma epithelial cell type from stomach that were isolated from the metastatic site of left leg muscle. Hs 746T cell lines were implanted subcutaneously in nude mice. Tumors were allowed to grow. Once the average tumor volume reached the volume of 120 mm3, animals were randomized into four groups of vehicle control, 75 mg/kg, 100 mg/kg, and 150 mg/kg 2-(difluoromethoxy)-N-[[5-(2-methoxyphenyl)-1H-1,2,4-triazol-3-yl]methyl]benzamide with 10 animals per group. Methocel E3 Premium LV with 2% labrasol in Milli-Q water was used for vehicle control. 2-(difluoromethoxy)-N-[[5-(2-methoxyphenyl)-1H-1,2,4-triazol-3-yl]methyl]benzamide was prepared prior to each dosing in 2% labrasol dissolved in Milli-Q water. […] For each individual animal of vehicle group TGI % was calculated based on the tumor growth inhibition of individual tumor at each given day of the study compared to the average of the group for that given day of the study. The P value was calculated for each group that was treated with 2-(difluoromethoxy)-N-[[5-(2-methoxyphenyl)-1H-1,2,4-triazol-3-yl]methyl]benzamide for each given day of the study by comparing the TGI of that day to the TGI of the vehicle group. […] P value was calculated by excel program using two-tailed distribution and two-sample equal variance (homoscedastic). ns P>0.05; * P<0.05; ** P<0.01; *** P<0.001; **** P<0.0001.
# [4] = Tolerability (body weight, survival) in SNU-5 xenograft study; assay type: in vivo; details: oral BID, solid dispersion
# Experimental: SNU-5 cell lines were implanted subcutaneously in nude mice. Tumors were allowed to grow. Once the average tumor volume reached the volume of 122 mm3, animals were randomized into three groups of vehicle control, 75 mg/kg and 150 mg/kg 2-(difluoromethoxy)-N-[[5-(2-methoxyphenyl)-1H-1,2,4-triazol-3-yl]methyl]benzamide with 12 animals per group. Methocel E3 Premium LV in Milli-Q water was used for vehicle control. A solid dispersion of 2-(difluoromethoxy)-N-[[5-(2-methoxyphenyl)-1H-1,2,4-triazol-3-yl]methyl]benzamide was prepared prior to each dosing in Milli-Q water. […] The percentage of tumor growth inhibition (TGI %) was calculated for each individual tumor. […] For each individual animal of vehicle group TGI % was calculated based on the tumor growth inhibition of individual tumor at each given day of the study compared to the average of the group for that given day of the study. The P value was calculated for each group that was treated with 2-(difluoromethoxy)-N-[[5-(2-methoxyphenyl)-1H-1,2,4-triazol-3-yl]methyl]benzamide for each given day of the study by comparing the TGI of that day to the TGI of the vehicle group. […] P value was calculated by excel program using two-tailed distribution and two-sample equal variance (homoscedastic). ns P>0.05; * P<0.05; ** P<0.01; *** P<0.001; **** P<0.0001.
# UBE2K = target: T1, UBE2K (Homo sapiens, UniProt P61086); details: poly-ubiquitination assays, FIG. 2 of U.S. Pat. No. 11,091,447; cited from earlier work
# T1 sequence (P61086 1-200): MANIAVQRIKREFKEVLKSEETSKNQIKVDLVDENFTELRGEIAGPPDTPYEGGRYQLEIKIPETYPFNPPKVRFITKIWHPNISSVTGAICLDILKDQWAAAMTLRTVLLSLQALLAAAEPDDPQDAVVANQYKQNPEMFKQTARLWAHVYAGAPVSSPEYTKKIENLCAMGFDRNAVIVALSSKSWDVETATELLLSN
structure (smiles),measurement,setting,value
"COc1ccccc1-c1nc(CNC(=O)c2ccccc2OC(F)F)n[nH]1 [2-(difluoromethoxy)-N-[[5-(2-methoxyphenyl)-1H-1,2,4-triazol-3-yl]methyl]benzamide]",HS746T tumor growth inhibition (TGI),"HS746T tumors; 150 mg/kg in nude mice (summary, FIG. 1)",more than 70%
same,% Tumor Growth Inhibition (% TGI),"HS746T tumors; 75 mg/kg oral BID, day 3",47.2%
same,% Tumor Growth Inhibition (% TGI),"HS746T tumors; 75 mg/kg oral BID, day 5",45.9%
same,% Tumor Growth Inhibition (% TGI),"HS746T tumors; 75 mg/kg oral BID, day 8",46.3%
same,% Tumor Growth Inhibition (% TGI),"HS746T tumors; 75 mg/kg oral BID, day 10",46.3%
same,% Tumor Growth Inhibition (% TGI),"HS746T tumors; 75 mg/kg oral BID, day 12",36.8%
same,% Tumor Growth Inhibition (% TGI),"HS746T tumors; 75 mg/kg oral BID, day 15",35.7%
same,"tumor growth inhibition, mixed effect linear model of the tumor volumes on the last day of study",HS746T tumors; 75 mg/kg oral BID,60.3%
same,% Tumor Growth Inhibition (% TGI),"HS746T tumors; 100 mg/kg oral BID, day 3",65.8%
same,% Tumor Growth Inhibition (% TGI),"HS746T tumors; 100 mg/kg oral BID, day 5",56.2%
same,% Tumor Growth Inhibition (% TGI),"HS746T tumors; 100 mg/kg oral BID, day 8",57.7%
same,% Tumor Growth Inhibition (% TGI),"HS746T tumors; 100 mg/kg oral BID, day 10",59.4%
same,% Tumor Growth Inhibition (% TGI),"HS746T tumors; 100 mg/kg oral BID, day 12",49.3%
same,% Tumor Growth Inhibition (% TGI),"HS746T tumors; 100 mg/kg oral BID, day 15",52.4%
same,"tumor growth inhibition, mixed effect linear model of the tumor volumes on the last day of study",HS746T tumors; 100 mg/kg oral BID,71.2%
same,% Tumor Growth Inhibition (% TGI),"HS746T tumors; 150 mg/kg oral BID, day 3",98.3%
same,% Tumor Growth Inhibition (% TGI),"HS746T tumors; 150 mg/kg oral BID, day 5",93.1%
same,% Tumor Growth Inhibition (% TGI),"HS746T tumors; 150 mg/kg oral BID, day 8",89.8%
same,% Tumor Growth Inhibition (% TGI),"HS746T tumors; 150 mg/kg oral BID, day 10",84.2%
same,% Tumor Growth Inhibition (% TGI),"HS746T tumors; 150 mg/kg oral BID, day 12",72.9%
same,% Tumor Growth Inhibition (% TGI),"HS746T tumors; 150 mg/kg oral BID, day 15",74.3%
same,"tumor growth inhibition, mixed effect linear model of the tumor volumes on the last day of study",HS746T tumors; 150 mg/kg oral BID,85.3%
same,% Tumor Growth Inhibition (% TGI),"SNU5 tumors; 75 mg/kg oral BID, day 2",79%
same,% Tumor Growth Inhibition (% TGI),"SNU5 tumors; 75 mg/kg oral BID, day 5",41%
same,% Tumor Growth Inhibition (% TGI),"SNU5 tumors; 75 mg/kg oral BID, day 7",36%
same,% Tumor Growth Inhibition (% TGI),"SNU5 tumors; 75 mg/kg oral BID, day 9",49%
same,% Tumor Growth Inhibition (% TGI),"SNU5 tumors; 75 mg/kg oral BID, day 12",51%
same,% Tumor Growth Inhibition (% TGI),"SNU5 tumors; 75 mg/kg oral BID, day 14",47%
same,% Tumor Growth Inhibition (% TGI),"SNU5 tumors; 75 mg/kg oral BID, day 16",56%
same,% Tumor Growth Inhibition (% TGI),"SNU5 tumors; 75 mg/kg oral BID, day 19",47%
same,% Tumor Growth Inhibition (% TGI),"SNU5 tumors; 75 mg/kg oral BID, day 21",40%
same,tumor growth inhibition,SNU5 tumors; 150 mg/kg oral BID (FIG. 3),64%
same,% Tumor Growth Inhibition (% TGI),"SNU5 tumors; 150 mg/kg oral BID, day 2",129%
same,% Tumor Growth Inhibition (% TGI),"SNU5 tumors; 150 mg/kg oral BID, day 5",70%
same,% Tumor Growth Inhibition (% TGI),"SNU5 tumors; 150 mg/kg oral BID, day 7",58%
same,% Tumor Growth Inhibition (% TGI),"SNU5 tumors; 150 mg/kg oral BID, day 9",64%
same,% Tumor Growth Inhibition (% TGI),"SNU5 tumors; 150 mg/kg oral BID, day 12",63%
same,% Tumor Growth Inhibition (% TGI),"SNU5 tumors; 150 mg/kg oral BID, day 14",54%
same,% Tumor Growth Inhibition (% TGI),"SNU5 tumors; 150 mg/kg oral BID, day 16",64%
same,% Tumor Growth Inhibition (% TGI),"SNU5 tumors; 150 mg/kg oral BID, day 19",52%
same,% Tumor Growth Inhibition (% TGI),"SNU5 tumors; 150 mg/kg oral BID, day 21",49%
same,cyclinB1 in tumor tissues,[1],dose-dependent increase
same,phosphor histone H3 in tumor tissues,[1],dose-dependent increase
same,cyclin B1 in tumor tissues,[2],dose dependent increase; also recorded: dose-dependent increase
same,phosphor histone H3 in tumor tissues,[2],dose dependent increase; also recorded: dose-dependent increase
same,effect on body weight,[3],without any significant effect on body weight
same,effect on body weight,[4],without any significant effect on body weight
same,effect on mono-ubiquitinated UBE2K,UBE2K,stabilize mono-ubiquitinated UBE2K

# From patent US20250017906A1, “COMPOUNDS FOR USE IN TREATING GASTRIC CANCER” (BPGBio, Inc., priority 2021, published 2025)
